Results published in patent publication US12238268B2, “Imaging systems and methods” (priority 2012, dated 2025).
Positions of bridges follow the written chain, without caps; N, C: chain ends. Non-standard residues stand in square brackets, D forms with d. Residues, ends and D or L forms follow the SMILES beside them. *: point of attachment. X1 = CC1(C)C(/C=C/C=C/C=C/C=C2/N(CCC(=O)*)c3ccc4ccccc4c3C2(C)C)=[N+](CCC(=O)[O-])c2ccc3ccccc3c21

Columns and labels:
ABIR = ABIR (Homo sapiens, UniProt P05106+P06756); experiment: ABIR binding affinity; settings: relative to reference cypate-labeled RGD peptide
ABIR, sequence (P06756 31-889 limits assumed): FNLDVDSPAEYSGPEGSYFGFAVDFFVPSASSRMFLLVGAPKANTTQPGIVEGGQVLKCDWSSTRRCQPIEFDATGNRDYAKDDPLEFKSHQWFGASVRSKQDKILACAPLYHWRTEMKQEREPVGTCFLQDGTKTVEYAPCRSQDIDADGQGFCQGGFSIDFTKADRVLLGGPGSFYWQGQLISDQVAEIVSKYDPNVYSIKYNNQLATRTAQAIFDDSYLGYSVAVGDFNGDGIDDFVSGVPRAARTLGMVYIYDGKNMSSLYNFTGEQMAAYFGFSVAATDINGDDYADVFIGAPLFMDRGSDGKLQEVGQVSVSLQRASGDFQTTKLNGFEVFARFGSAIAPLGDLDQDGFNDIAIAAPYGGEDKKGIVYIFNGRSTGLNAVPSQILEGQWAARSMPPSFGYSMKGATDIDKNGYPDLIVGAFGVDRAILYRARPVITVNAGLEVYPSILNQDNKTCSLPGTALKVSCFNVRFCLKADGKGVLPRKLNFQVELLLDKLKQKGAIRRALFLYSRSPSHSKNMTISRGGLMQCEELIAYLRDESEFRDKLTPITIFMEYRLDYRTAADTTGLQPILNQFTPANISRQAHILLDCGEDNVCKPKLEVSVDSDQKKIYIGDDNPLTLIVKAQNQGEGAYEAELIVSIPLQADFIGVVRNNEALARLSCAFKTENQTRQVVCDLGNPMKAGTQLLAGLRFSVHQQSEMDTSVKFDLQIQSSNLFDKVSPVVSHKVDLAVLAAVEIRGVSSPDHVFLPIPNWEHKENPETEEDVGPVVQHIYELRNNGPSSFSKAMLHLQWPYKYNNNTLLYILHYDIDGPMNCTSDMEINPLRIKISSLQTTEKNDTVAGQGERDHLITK
ABIR, sequence (P06756 891-1048 partner limits assumed): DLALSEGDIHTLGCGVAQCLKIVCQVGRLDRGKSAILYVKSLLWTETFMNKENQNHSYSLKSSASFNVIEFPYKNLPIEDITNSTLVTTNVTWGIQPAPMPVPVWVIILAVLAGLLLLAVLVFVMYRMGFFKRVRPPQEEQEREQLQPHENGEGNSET
ABIR, sequence (P05106 27-788): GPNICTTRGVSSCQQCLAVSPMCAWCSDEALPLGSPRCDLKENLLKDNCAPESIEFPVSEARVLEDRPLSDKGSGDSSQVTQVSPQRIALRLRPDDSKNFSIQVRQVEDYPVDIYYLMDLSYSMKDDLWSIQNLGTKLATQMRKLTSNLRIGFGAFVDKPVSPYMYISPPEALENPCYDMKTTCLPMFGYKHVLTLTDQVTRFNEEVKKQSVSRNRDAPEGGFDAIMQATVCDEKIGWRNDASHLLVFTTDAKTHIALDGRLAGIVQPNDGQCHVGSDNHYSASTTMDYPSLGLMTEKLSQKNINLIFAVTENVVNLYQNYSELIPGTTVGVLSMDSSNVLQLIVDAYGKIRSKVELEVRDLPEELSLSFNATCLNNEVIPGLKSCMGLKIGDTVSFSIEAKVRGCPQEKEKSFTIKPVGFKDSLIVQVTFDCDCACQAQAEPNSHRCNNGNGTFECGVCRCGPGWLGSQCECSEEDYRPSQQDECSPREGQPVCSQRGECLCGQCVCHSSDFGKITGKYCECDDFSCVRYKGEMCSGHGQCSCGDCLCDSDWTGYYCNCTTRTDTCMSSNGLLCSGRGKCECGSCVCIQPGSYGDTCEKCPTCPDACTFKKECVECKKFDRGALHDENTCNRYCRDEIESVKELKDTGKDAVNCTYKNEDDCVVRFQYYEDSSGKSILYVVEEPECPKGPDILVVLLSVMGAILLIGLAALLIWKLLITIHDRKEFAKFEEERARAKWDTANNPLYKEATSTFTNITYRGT
Description: (§1) An example of a tumor-targeted molecular probe is LS-301, which has the structure, Cypate-cyclo (D-Cys-Gly-Arg-Asp-Ser-Pro-Cys)-Lys-OH. The spectral properties of LS-301 are suitable for NIR imaging applications (e.g., excitation/emission 790/810 nm in 20% DMSO solution; fluorescence quantum yield (ψ) 0.1 referenced to ICG). […] In addition to conferring tumor selectivity on LS-301, the unnatural D-cysteine on the peptide moiety confers higher stability because of its resistance to degradation by proteases. This biological stability in serum allows initial imaging and potential follow-up surgery to be conducted within 48 hours before subsequent hydrolysis of the probe through L-amino acid residues.

[1] = Biological stability in serum; format: in vitro ADME; settings: hydrolysis through L-amino acid residues
Description: as §1

[2] = tested on: hepatocellular carcinoma (HCC); experiment: Goggle-aided fluorescence imaging of hepatocellular carcinoma in patients; format: in vivo; settings: human patients
Description: In another example, goggle device 102 (shown in FIG. 1) and indocyanine green dye were used to image hepatocellular carcinoma (HCC) in human patients. Both intravenous and transarterial hepatic (TAH) delivery of indocyanine green dye were used. […] Histologic validation was used to confirm HCC in the patients.

liver tumors = experiment: Goggle-aided fluorescence imaging of liver tumors, mice; format: in vivo; settings: goggle device 102
Description: (§2) In another example, a multimodal detection technique was implemented in which goggle-aided fluorescence imaging (e.g., using goggle device 102 (shown in FIG. 1) and indocyanine green dye) was combined with ultrasound imaging and standard histology. Specifically, fluorescence imaging was used to detect liver tumors in mice and to perform liver resections on the tumors. […] Further, liver resection was performed on a rabbit using ultrasound, fluorescence imaging, and standard histology. […] The excised tissues were later examined by histopathology, and it was confirmed that the tumors were cancerous.

tumors = experiment: Goggle-aided fluorescence imaging and liver resection, rabbit; format: in vivo; settings: fluorescence goggle system 100, confirmed by ultrasound and histopathology
Description: as §2

SMILES | Ki (ABIR) | biological stability in serum: time for imaging and follow-up surgery before hydrolysis of the probe [1] | HCC-to-liver fluorescence contrast, TAH delivery instead of intravenous delivery ([2]; goggle device 102) | detection of HCC tumors by fluorescence imaging ([2]; intravenous and transarterial hepatic (TAH) delivery) | detection of liver tumors by fluorescence imaging (liver tumors) | observation of tumors by fluorescence imaging (tumors)
CC1(C)C(/C=C/C=C/C=C/C=C2/N(CCC(=O)N[C@@H]3CSSC[C@@H](C(=O)N[C@@H](CCCCN)C(=O)O)NC(=O)[C@@H]4CCCN4C(=O)[C@H](CO)NC(=O)[C@H](CC(=O)O)NC(=O)[C@H](CCCNC(=N)N)NC(=O)CNC3=O)c3ccc4ccccc4c3C2(C)C)=[N+](CCC(=O)[O-])c2ccc3ccccc3c21 [LS-301, Cypate-cyclo (D-Cys-Gly-Arg-Asp-Ser-Pro-Cys)-Lys-OH] (X1-[dC]GRDSPCK-OH; disulfide 1-7) | 26.2 ± 0.4 nM | ≤ 48 hours |  |  |  | 
CC1(C)C(/C=C/C=C/C=C/C=C2\N(CCCCS(=O)(=O)O)c3ccc4ccccc4c3C2(C)C)=[N+](CCCCS(=O)(=O)[O-])c2ccc3ccccc3c21 [indocyanine green dye, indocyanine green] |  |  | significantly higher | Primary tumors and satellite tumors were both detected | In addition to single tumors, scattered satellite lesions were also detected | observed in real-time
